From patent US20050014268A1, “Genetic transformation using a PARP inhibitor” (Bayer BioScience NV, priority 1995, published 2005)
Marks after values point to notes of the source that are not given here.

Experiments:
[1] = test system: wheat embryogenic callus (variety Pavon); assay: Transformation of wheat calli with barnase/bar plasmids by particle bombardment, with niacinamide treatment of the calli; type: cell-based
Protocol: The Wheat Spring variety Pavon is grown in a greenhouse or conditioned room at 23-24° C. during daytime and 18-20° C. at night, with a photoperiod of 16 hours light and 8 hours dark. Developing seeds (white-greenish with white semi-liquid endosperm) were harvested, sterilized by incubation for 1 minute in 70% ethanol followed by 15 minute incubation in 1.3% NaOCl+0.1% Tween 20, and washed with sterile water. The sterilized seeds were either used directly or were stored for one day at 4-7° C.
Immature embryos of about 1 mm in size were isolated and were placed, with the scutellum upwards, on callus inducing medium W1 (MS medium supplemented with 3% sucrose, 40 mg/l adenine.SO4, 0.5 mg/l thiamine.HCl, 0.5 g/l 2-[N-Morpholino] ethane sulfonic acid (Mes) pH 5.8, 0.5% agarose, 0.5 to 2.5 mg/l CuSO4.5H2O, 25 mg/l acetylsalicylic acid and 2 mg/l 2,4-dichlorophenoxyacetic acid (2,4-D)) and were incubated for 3 weeks at 27° C. in the dark.
Embryogenic sections of the developing callus were isolated, placed on callus maintenance medium W2 (W1 medium but without acetylsalicylic acid and with only 0.5 mg/l CuSO4.5H2O and 1 mg 2,4-D), and incubated for 3 weeks at 24-25° C. in the light (approx. 20 mEinsteins/s/m^2 (with a photoperiod of 16 hours light and 8 hours dark).
About 2 weeks prior to bombardment the calli were cleaned up by removal of non-morphogenic (i.e. the nonembryogenic and nonmeristematic) parts and were subcultured on W2 medium.
For bombardment the calli were divided into small pieces with an average maximum diameter of about 2-3 mm. These pieces were placed at the center of a 9 cm Petridish containing W2 medium in a circle with a diameter of approx. 0.5 cm. […]
Bombardment was carried out using the Biolistic PDS-1000/He apparatus (Bio-Rad). Preparation of the microcarriers ([…]) and the coating of the microcarriers with DNA was essentially carried out according to the manufacturer's instructions. The Petridishes containing the calli were placed at level 2 of the apparatus and the bombardment was done at 1550 psi.
For the transformation experiments the following plasmid DNA was used. • plasmid pVE136, the sequence of which is given in SEQ ID No 4. This plasmid contains the following chimeric genes: • P35S-bar-3′nos • PCA55-barnase-3′nos • in which P35S is the 35S promoter of the Cauliflower, Mosaic virus, bar is a DNA encoding phosphinothricin acetyltransferase (EP 242236), 3′nos is the 3′ untranslated end of the Agrobacterium T-DNA nopaline synthase gene, PCA55 is a stamen-specific promoter from corn gene CA55 (WO 9213957), and barnase is a DNA encoding barnase (Hartley, 1988, J.Mol.Biol.202:913-915) • plasmid pTS172 the sequence of which is given in SEQ ID No 2. This plasmid contains the following chimeric genes: • P35S-bar-3′g7 • PE1-barnase-3′nos • in which in which P35S is the 35S promoter of the Cauliflower Mosaic virus, bar is a DNA encoding phosphinothricin acetyltransferase (EP 242236), 3′g7 is the 3′ untranslated end of the Aqrobacterium T-DNA gene 7, PE1 is a stamen-specific promoter from rice gene E1 (WO 9213956), barnase is a DNA encoding barnase (Hartley, 1988, J.Mol.Biol.202:913-915), and 3′ nos is the 3′ untranslated end of the Agrobacterium T-DNA nopaline synthase gene, • plasmid pTS772 which is identical to pTS172 except that the region between nucleotides 2625-4313 of pTS172, containing PE1, is replaced by the sequence of SEQ ID No 3 containing the PT72 promoter. Thus, plasmid pTS772 contains the following chimeric genes: • P35S-bar-3′g7 • PT72-barnase-3′nos • in which PT72 is a stamen-specific promoter from rice gene T72 (WO 9213956)
The bombarded calli were transferred to selective medium W2 containing 2.5 mg/l phosphinothricin (PPT) and, if neccesary, 100 mg/l niacinamide. The calli that were placed on medium containing niacinamide were transferred after 4 days to niacinamide-free W2 medium containing 2.5 mg/l PPT. The cells were cultured at 24-25° C. […]

[2] = test system: Hypocotyl explants of Brassica napus; assay: Agrobacterium-mediated transformation of oilseed rape hypocotyl explants with pTHW142 using niacinamide before, during or after infection; type: cell-based
Protocol: Hypocotyl explants of Brassica napus were obtained as described in Example 3. Four groups of 200 hypocotyl explants each, were either not treated with niacinamide (indicated in table 4 as NONE), treated with 250 mg/l niacinamide for 1 day prior to infection with Agrobacterium (BEFORE), treated for 2 days during the infection with 250 mg/l niacinamide (DURING), or treated for 1 day after the Agrobacterium infection with 250 mg/l niacinamide (AFTER).
All hypocotyl explants were infected with Agrobacterium tumefaciens strain C58C1Rif carrying T-DNA vector pTHW142 and a helper Ti-plasmid pMP90 (Koncz and Shell, 1986 supra)(or a derivative thereof). Plasmid pTHW142 is a vector carrying a T-DNA comprising the following chimeric genes: • PSSU-bar-3′g7 • p35S-uidA-3′35S • In which uidA is a DNA encoding b-glucuronidase (Jefferson et al., 1986, Proc. Natl. Acad. Sci. USA 83, 8447-8451) and 3′ 35S is the 3′ untranslated end of the cauliflower mosaic virus 35S transcript. The complete sequence of the T-DNA of pTHW142 is presented in SEQ ID No 5.
After the Agrobacterium infection, hypocotyl explants were transferred to selection medium A5, and if appropriate to A5 medium containing 250 mg/ll niacinamide. The hypocotyl explants that were placed on medium containing niacinamide were transferred after 1 day to niacinamide-free selection medium A5. After 5 weeks on selective medium the number of transformed calli was scored. b-glucuronidase expression was verified in the obtained calli using established protocols (Jefferson et al., 1986).

[3] = Plasmid pTS172, Before 250, 125 bombarded calli
[4] = Plasmid pTS772, Before 250, 210 bombarded calli
[5] = Plasmid pTS772, Before/After, 210 bombarded calli

NC(=O)c1cccnc1 [niacinamide]
Nr of PPT-resistant calli recovered ([1]; Plasmid pTS172, Before 250 (250 mg/l niacinamide for four days prior to bombardment), 125 bombarded calli): 30 | Nr of MS plants recovered [1, 3]: 3^b) | Nr of PPT resistant plants recovered [1, 3]: 3 | appearance of the obtained plants ([1]; Plasmid pTS172, Before 250, MS plants): ^b)The obtained plants looked healthy and tillered vigorously | Nr of PPT resistant plants recovered [1, 4]: 7 | Nr of PPT-resistant calli recovered [1, 4]: 75 | Nr of MS plants recovered ([1]; Plasmid pTS772, Before 250, 210 bombarded calli, only six plants could be analyzed for MS phenotype): 3^a)b) | appearance of the obtained plants ([1]; Plasmid pTS772, Before 250 and Before/After, MS plants): ^a)The obtained plants looked healthy and tillered vigorously | Nr of PPT-resistant calli recovered ([1]; Plasmid pTS772, Before/After (250 mg/l four days prior plus 100 mg/l four days after bombardment), 210 bombarded calli): 45 | Nr of MS plants recovered [1, 5]: 3^a | Nr of PPT resistant plants recovered [1, 5]: 6 | Nr of PPT resistant plants recovered ([1]; Plasmid pVE136, Before 100 (100 mg/l niacinamide for four days prior to bombardment), 800 bombarded calli): 8^a) | Nr of MS plants recovered ([1]; Plasmid pVE136, Before 100, 800 bombarded calli): 8 | appearance of the obtained plants ([1]; Plasmid pVE136, Before 100, PPT resistant plants): ^a)The obtained plants looked healthy and tillered vigorously | recovery of plants from bombarded calli ([1]; Tables 1, 2 and 3, treated versus untreated calli): obtained only from bombarded calli that were treated with niacinamide | Transformation frequency (transformed calli, PPT-resistant and GUS-positive, per 100 hypocotyl explants) ([2]; AFTER: 250 mg/l niacinamide for 1 day after the infection, scored after 5 weeks): 29% | Transformation frequency (transformed calli, PPT-resistant and GUS-positive, per 100 hypocotyl explants) ([2]; BEFORE: 250 mg/l niacinamide for 1 day prior to infection, scored after 5 weeks on selective medium): 32% | Remarks (callus size and appearance) ([2]; BEFORE, large: callus diameter of approximately 5 mm): large, green calli | Transformation frequency (transformed calli, PPT-resistant and GUS-positive, per 100 hypocotyl explants) ([2]; DURING: 250 mg/l niacinamide for 2 days during the infection, scored after 5 weeks): 16% | Remarks (callus size and appearance) ([2]; DURING, very small: callus diameter of approximately 1-2 mm): very small, light green calli | transformation efficiency ([2]; niacinamide treatment either before or after the Agrobacterium infection): significantly increase
